ChEMBL document CHEMBL5338769, “Discovery of Norisoboldine Analogue III11 as a Novel and Potent Aryl Hydrocarbon Receptor Agonist for the Treatment of Ulcerative Colitis” (J Med Chem, 2023)
The source made the active and inactive calls. The rule behind the calls is not given here.

What was measured:
[1] = biological target: T1, Aryl hydrocarbon receptor (Mus musculus, UniProt P30561); experiment: Activation of AhR transcription in C57BL/6 mouse naive T cells assessed as increase in CYP1B1 mRNA expression at 1 to 3 uM by qRT-PCR analysis; type: cell-based; conditions: t cell, dose 1-3 µM
T1 sequence (P30561 whole entry): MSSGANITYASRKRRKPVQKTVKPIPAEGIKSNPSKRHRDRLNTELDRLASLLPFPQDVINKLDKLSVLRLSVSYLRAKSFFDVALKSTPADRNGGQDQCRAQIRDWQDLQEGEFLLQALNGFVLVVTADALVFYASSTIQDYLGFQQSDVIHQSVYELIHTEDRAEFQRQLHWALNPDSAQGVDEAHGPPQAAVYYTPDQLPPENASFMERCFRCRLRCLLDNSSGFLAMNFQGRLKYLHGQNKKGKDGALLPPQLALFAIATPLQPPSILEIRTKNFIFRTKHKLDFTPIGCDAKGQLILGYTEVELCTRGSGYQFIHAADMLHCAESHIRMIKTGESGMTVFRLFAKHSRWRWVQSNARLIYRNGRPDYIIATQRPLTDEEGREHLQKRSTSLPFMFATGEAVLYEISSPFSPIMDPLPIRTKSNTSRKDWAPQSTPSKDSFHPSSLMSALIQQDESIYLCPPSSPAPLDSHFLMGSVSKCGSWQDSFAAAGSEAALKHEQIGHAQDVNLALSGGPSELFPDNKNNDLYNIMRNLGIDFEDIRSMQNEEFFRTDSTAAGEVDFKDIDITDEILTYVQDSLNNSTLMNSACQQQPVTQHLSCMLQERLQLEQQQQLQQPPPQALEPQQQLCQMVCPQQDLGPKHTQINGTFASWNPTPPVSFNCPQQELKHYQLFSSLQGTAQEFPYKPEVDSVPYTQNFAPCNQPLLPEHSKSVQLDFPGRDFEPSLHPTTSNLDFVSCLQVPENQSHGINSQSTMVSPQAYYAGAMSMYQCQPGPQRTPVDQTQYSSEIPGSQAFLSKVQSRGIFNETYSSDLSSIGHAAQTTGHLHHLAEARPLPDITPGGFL

[2] = biological target: T1, Aryl hydrocarbon receptor; experiment: Activation of AhR transcription in C57BL/6 mouse naive T cells assessed as increase in UGT1A1 mRNA expression at 1 to 3 uM by qRT-PCR analysis; type: cell-based; conditions: t cell, dose 1-3 µM
[3] = biological target: T1, Aryl hydrocarbon receptor; experiment: Activation of AhR transcription in C57BL/6 mouse naive T cells assessed as increase in CYP1A1 mRNA expression by measuring fold change at 3 uM by qRT-PCR analysis relative to control; type: cell-based; conditions: T-cell, read-out: FC
[4] = Unbound drug concentration in rat plasma at 21.67 ug/ml of total concentration measured after 12 hrs by ultrafiltration based HPLC analysis; type: ADME, cell-free; conditions: dose 21.67 µg/ml
[5] = Unbound drug concentration in rat plasma at 48.02 ug/ml of total concentration measured after 12 hrs by ultrafiltration based HPLC analysis; type: ADME, cell-free; conditions: dose 48.02 µg/ml
[6] = Protein binding in rat plasma at 37.38 ug/ml of total concentration measured after 12 hrs by ultrafiltration based HPLC analysis; type: ADME, cell-free; conditions: at 37.38 µg/mL, read-out: PPB (converted)
[7] = Protein binding in rat plasma at 21.67 ug/ml of total concentration measured after 12 hrs by ultrafiltration based HPLC analysis; type: ADME, cell-free; conditions: at 21.67 µg/mL, read-out: PPB (converted)
[8] = Protein binding in rat plasma at 48.02 ug/ml of total concentration measured after 12 hrs by ultrafiltration based HPLC analysis; type: ADME, cell-free; conditions: at 48.02 µg/mL, read-out: PPB (converted)
[9] = Induction of cell differentiation in C57BL/6 mouse naive regulatory T cells assessed as increase in […] mRNA level by measuring fold change at 3 uM incubated for 72 hrs by qRT-PCR analysis; type: functional
[10] = Induction of cell differentiation in C57BL/6 mouse naive regulatory T cells assessed as increase in IL-10 mRNA level by measuring fold change at 3 uM incubated for 72 hrs by qRT-PCR analysis; type: functional
[11] = AUC(0 to infinity) in Sprague-Dawley rat at 3 mg/kg, iv measured upto 1440 min by LC-MS/MS analysis; type: ADME, organism-based; design: dose 3 mg/kg, time < 1440 min, route iv; conditions: in vivo
[12] = Apparent oral clearance in Sprague-Dawley rat at 3 mg/kg, iv measured upto 1440 min by LC-MS/MS analysis; type: ADME, organism-based; conditions: in vivo, 24 h
[13] = AUC(0 to infinity) in Sprague-Dawley rat at 30 mg/kg, po measured upto 1440 min by LC-MS/MS analysis; type: ADME, organism-based; design: time < 1440 min, dose 30 mg/kg, route po; conditions: in vivo
[14] = MRT in Sprague-Dawley rat at 30 mg/kg, po measured upto 1440 min by LC-MS/MS analysis; type: ADME, organism-based; conditions: in vivo
[15] = Apparent oral clearance in Sprague-Dawley rat at 30 mg/kg measured upto 1440 min by LC-MS/MS analysis; type: ADME, organism-based; conditions: in vivo, 24 h
[16] = Oral bioavailability in Sprague-Dawley rat at 30 mg/kg measured upto 1440 min by LC-MS/MS analysis; type: ADME, organism-based; conditions: in vivo
Mus musculus [17] = experiment: Anti-colitis activity against DSS-induced ulcerative colitis C57BL/6 mouse model assessed as decrease in colon MPO activity at 10 to 20 mg/kg, po administered once a day for 10 days; type: functional, organism-based; conditions: dose 10-20 mg/kg, time 10.0 day
Mus musculus [18] = experiment: Anti-colitis activity against DSS-induced ulcerative colitis C57BL/6 mouse model assessed as amelioration of epithelial change score by measuring hyperplasia in colon at 10 to 20 mg/kg, po administered once a day for 10 days by H&E staining based histopathological analysis; type: functional, organism-based; conditions: dose 10-20 mg/kg, time 10.0 day
Mus musculus [19] = experiment: Anti-colitis activity against DSS-induced ulcerative colitis C57BL/6 mouse model assessed as amelioration of epithelial change score by measuring cryptitis in colon at 10 to 20 mg/kg, po administered once a day for 10 days by H&E staining based histopathological analysis; type: functional, organism-based; conditions: dose 10-20 mg/kg, time 10.0 day
Mus musculus [20] = experiment: Anti-colitis activity against DSS-induced ulcerative colitis C57BL/6 mouse model assessed as amelioration of epithelial change score by measuring loss of goblet cells in colon at 10 to 20 mg/kg, po administered once a day for 10 days by H&E staining based histopathological analysis; type: functional, organism-based; conditions: dose 10-20 mg/kg, time 10.0 day
[21] = Induction of cell differentiation in C57BL/6 mouse naive regulatory T cells assessed as increase in cell frequency at 1 uM incubated for 72 hrs by flow cytometric analysis (reference value: 24.9%); type: functional
Mus musculus [22] = experiment: Anti-colitis activity against DSS-induced ulcerative colitis C57BL/6 mouse model assessed as increase in IL-10 mRNA level at 20 mg/kg, po administered once a day for 10 days by qRT-PCR analysis; type: functional, organism-based; conditions: time 10.0 day
Mus musculus [23] = experiment: Anti-colitis activity in DSS-induced ulcerative colitis C57BL/6 mouse model assessed as increase in CD4+CD25+Foxp3+ Treg cell ratio in mesenteric lymph nodes at 20 mg/kg, po administered once a day for 10 days by flow cytometric analysis (reference value: 4.5 %); type: functional; conditions: time 10 day
Mus musculus [24] = experiment: Anti-colitis activity in DSS-induced ulcerative colitis C57BL/6 mouse model assessed as decrease in IL-17 expression at 20 mg/kg, po administered once a day for 10 days by qRT-PCR analysis; type: functional; design: scale not given: the % may be the effect or the level left; conditions: time 10 day

With COc1cc2c3c(c1)-c1ccc(O)cc1CC3NCC2 (centres undefined) the Activity [1] was “Active”, the Activity [2] was “Active” and the fold induction at 3 µM [3] was 4.6. The “Cp(f)” value [4] was 3230 ng/mL, the “Cp(f)” value [5] was 6670 ng/mL and the fraction unbound at 12 h, 37.38 ug/ml [6] was 0.491. The fraction unbound at 12 h, 21.67 ug/ml [7] was 0.149, the fraction unbound at 12 h, 48.02 ug/ml [8] was 0.139 and the “fold change (FC)” value [9] was 1.4. For the same compound, the “fold change (FC)” value [10] was 2.4, the AUC(0-inf) [11] was 974 ng·h/mL and the CL/F [12] was 0.01 mg/(ng/ml)/min. The AUC(0-inf) [13] was 8520 ng·h/mL, the MRT [14] was 7.27 h and the CL/F [15] was 0 mg/(ng/ml)/min. For the same compound, the bioavailability [16] was 87.4%, the Activity (Mus musculus [17]) was “Active” and the Activity (Mus musculus [18]) was “Active”. For the same compound, the Activity (Mus musculus [19]) was “Active”, the Activity (Mus musculus [20]) was “Active” and the Activity [21] was 29.9%. The Activity (Mus musculus [22]) was “Active”, the Activity (Mus musculus [23]) was 8.5% and the Activity (Mus musculus [24]) was 86.96%.
